Assay results as given in patent publication US20060167057A1, “Compounds for the treatment of CNS and amyloid associated diseases” (priority 2004, published 2006).

Molecular target: T1, L1 transport system (large neutral amino acid carrier, L1-system carrier) (Rattus norvegicus, UniProt Q63016)
T1 construct: functionality of their endogenous transporters such as the L1-system carrier; endogenous in cells; host or cells: rat primary cerebrovascular (brain microcapillary) endothelial cells, RBEC
Test: Competitive binding assay to the brain L1 transport system (L-[U-14C]phenylalanine on rat primary cerebrovascular endothelial cells)
Conditions: for Status of Binding: compounds of Example 4, 10^−6, 10^−5 and 10^−4, Δ versus phenylalanine
How it was run: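 Cells were primary cerebral microvascular endothelial cells from cortices of 24-day-old rats, isolated by collagenase/DNAse digestion, dextran separation and mesh filtration.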

T1 sequence (Q63016 whole entry): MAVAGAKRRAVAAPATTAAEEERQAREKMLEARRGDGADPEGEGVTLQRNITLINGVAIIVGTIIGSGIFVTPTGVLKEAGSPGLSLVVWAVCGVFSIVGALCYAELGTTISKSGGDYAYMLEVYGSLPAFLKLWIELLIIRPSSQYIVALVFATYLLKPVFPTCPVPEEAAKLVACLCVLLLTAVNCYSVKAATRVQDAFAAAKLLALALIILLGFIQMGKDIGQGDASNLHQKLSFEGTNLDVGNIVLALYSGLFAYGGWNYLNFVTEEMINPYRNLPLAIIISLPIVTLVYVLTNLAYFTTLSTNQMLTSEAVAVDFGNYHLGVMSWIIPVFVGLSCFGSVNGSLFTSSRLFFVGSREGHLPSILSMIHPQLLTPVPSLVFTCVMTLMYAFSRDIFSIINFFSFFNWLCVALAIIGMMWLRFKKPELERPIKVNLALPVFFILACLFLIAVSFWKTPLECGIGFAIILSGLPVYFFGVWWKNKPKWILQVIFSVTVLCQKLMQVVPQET
T1 sequence (Q794F9 whole entry partner): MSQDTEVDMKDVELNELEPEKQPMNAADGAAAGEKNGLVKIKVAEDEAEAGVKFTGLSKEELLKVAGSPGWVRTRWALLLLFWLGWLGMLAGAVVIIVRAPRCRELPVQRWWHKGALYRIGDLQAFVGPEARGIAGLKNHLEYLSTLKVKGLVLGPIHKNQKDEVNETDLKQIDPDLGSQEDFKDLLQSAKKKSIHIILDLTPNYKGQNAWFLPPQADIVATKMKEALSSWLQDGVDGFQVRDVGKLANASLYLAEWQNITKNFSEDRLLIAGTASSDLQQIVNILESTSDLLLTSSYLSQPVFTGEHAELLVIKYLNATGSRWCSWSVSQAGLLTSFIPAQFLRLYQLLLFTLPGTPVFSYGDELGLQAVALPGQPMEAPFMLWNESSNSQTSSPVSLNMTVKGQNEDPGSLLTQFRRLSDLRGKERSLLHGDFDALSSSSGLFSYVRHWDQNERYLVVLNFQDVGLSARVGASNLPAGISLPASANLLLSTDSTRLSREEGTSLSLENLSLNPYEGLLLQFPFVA

SMILES | Comparison with the Binding of Phenylalanine (10^−4 M) | Comparison with the Binding of Phenylalanine (10^−5 M) | Comparison with the Binding of Phenylalanine (10^−6 M) | Status of Binding
NC(Cc1cccc(CSc2nc3ccccc3c(=O)[nH]2)n1)C(=O)O (stereo not drawn) [Compound 125] | 0 (X < 0 Rank 0) | 1 (0 < X < 10 Rank 1) | 2 (10 < X < 20 Rank 2) | 
NC(Cc1cccc(CSc2cncc3c(C(F)(F)F)cccc23)n1)C(=O)O (stereo not drawn) [Compound 24] | 0 (X < 0 Rank 0) | 0 (X < 0 Rank 0) | 3 (X > 20 Rank 3) | 
N[C@@H](Cc1cccc(CSc2nnc(-c3ccncc3)[nH]2)c1)C(=O)O [drawing 486] |  |  |  | 2 (2: 10% ≧ Δ ≧ −10% similar binding affinity to phenylalanine)
NC(Cc1ccc(-c2ccc(CSc3nc(-c4ccccc4)c(-c4ccccc4)[nH]3)cc2)cc1)C(=O)O (stereo not drawn) [Compound 149] | 3 (X > 20 Rank 3) | 3 (X > 20 Rank 3) | 2 (10 < X < 20 Rank 2) | 
O=C(Nc1ccc(-c2ccccc2)cc1)NC(Cc1cccc(CSc2ncc[nH]2)c1)C(=O)O (stereo not drawn) [Compound 52] | 0 (X < 0 Rank 0) | 0 (X < 0 Rank 0) | 1 (0 < X < 10 Rank 1) | 
Cc1ccnc(SCc2cccc(CC(N)C(=O)O)n2)n1 (stereo not drawn) [Compound 121] | 0 (X < 0 Rank 0) | 0 (X < 0 Rank 0) | 1 (0 < X < 10 Rank 1) | 
N[C@@H](Cc1cccc(CSc2nc3ccccc3[nH]2)n1)C(=O)O [drawing 471] |  |  |  | 1 (1: −10 > Δ > −50%, lower binding affinity than phenylalanine)
N[C@@H](Cc1cccc(CSc2nc3ccccc3[nH]2)c1)C(=O)O [drawing 469] |  |  |  | 1 (1: −10 > Δ > −50%, lower binding affinity than phenylalanine)
NC(Cc1cccc(CSc2nc(-c3ccccc3)c(-c3ccccc3)o2)n1)C(=O)O (stereo not drawn) [Compound 119] | 2 (10 < X < 20 Rank 2) | 3 (X > 20 Rank 3) | 1 (0 < X < 10 Rank 1) | 
Nc1ccnc(SCc2cccc(CC(N)C(=O)O)n2)n1 (stereo not drawn) [Compound 38] | 2 (10 < X < 20 Rank 2) | 3 (X > 20 Rank 3) | 3 (X > 20 Rank 3) | 
N[C@@H](Cc1cccc(C[S+]([O-])c2nnnn2-c2ccccc2)c1)C(=O)O (stereo partly drawn) [drawing 475] |  |  |  | 3 (3: Δ > 10%, significantly higher binding affinity than phenylalanine)
N[C@@H](Cc1cccc(CSc2nccc(O)n2)c1)C(=O)O [drawing 474] |  |  |  | 1 (1: −10 > Δ > −50%, lower binding affinity than phenylalanine)
NC(Cc1cccc(CSc2nccc(C(F)(F)F)n2)n1)C(=O)O (stereo not drawn) [Compound 21] | 0 (X < 0 Rank 0) | 2 (10 < X < 20 Rank 2) | 1 (0 < X < 10 Rank 1) | 
NC(=O)C(N)Cc1cccc(CSc2nccc(N)n2)n1 (stereo not drawn) [Compound 39] | 0 (X < 0 Rank 0) | 2 (10 < X < 20 Rank 2) | 3 (X > 20 Rank 3) | 
N[C@@H](Cc1cccc(CSc2nc3ccc(Cl)cc3s2)n1)C(=O)O [drawing 477] |  |  |  | 1 (1: −10 > Δ > −50%, lower binding affinity than phenylalanine)
COc1ccc(-n2nnnc2[S+]([O-])Cc2cccc(C[C@H](N)C(=O)O)c2)cc1 (stereo partly drawn) [drawing 481] |  |  |  | 3 (3: Δ > 10%, significantly higher binding affinity than phenylalanine)
O=C(NC(Cc1cccc(CSc2nccc(O)n2)c1)C(=O)O)NC(c1ccccc1)c1ccccc1 (stereo not drawn) [Compound 17] | 1 (0 < X < 10 Rank 1) | 1 (0 < X < 10 Rank 1) | 2 (10 < X < 20 Rank 2) | 
O=C(Nc1ccc(-c2ccccc2)cc1)NC(Cc1cccc(CSc2cncc3c(C(F)(F)F)cccc23)n1)C(=O)O (stereo not drawn) [Compound 61] | 2 (10 < X < 20 Rank 2) | 0 (X < 0 Rank 0) | 2 (10 < X < 20 Rank 2) | 
NC(Cc1cccc(CSc2nnc[nH]2)n1)C(=O)O (stereo not drawn) [Compound 35] | 0 (X < 0 Rank 0) | 0 (X < 0 Rank 0) | 3 (X > 20 Rank 3) | 
N[C@@H](Cc1cccc(CSc2nnc(-c3ccncc3)o2)c1)C(=O)O [drawing 484] |  |  |  | 2 (2: 10% ≧ Δ ≧ −10% similar binding affinity to phenylalanine)
N[C@@H](Cc1cccc(CS(=O)(=O)c2nc3ccccc3[nH]2)c1)C(=O)O [drawing 478] |  |  |  | 2 (2: 10% ≧ Δ ≧ −10% similar binding affinity to phenylalanine)
NC(Cc1cccc(CSc2nc3cc([N+](=O)[O-])ccc3[nH]2)n1)C(=O)O (stereo not drawn) [Compound 94] | 1 (0 < X < 10 Rank 1) | 1 (0 < X < 10 Rank 1) | 1 (0 < X < 10 Rank 1) | 
O=C(NC(Cc1cccc(CSc2nnc(-c3ccccc3)[nH]2)c1)C(=O)O)NC(c1ccccc1)c1ccccc1 (stereo not drawn) [Compound 57] | 3 (X > 20 Rank 3) | 3 (X > 20 Rank 3) | 3 (X > 20 Rank 3) | 
NC(Cc1ccc(-c2ccc(CSc3ccnc4cc(C(F)(F)F)ccc34)cc2)cc1)C(=O)O (stereo not drawn) [Compound 47] | 0 (X < 0 Rank 0) | 2 (10 < X < 20 Rank 2) | 2 (10 < X < 20 Rank 2) | 

Second part, led by results:

Comparison with the Binding of Phenylalanine (10^−4 M) | Comparison with the Binding of Phenylalanine (10^−5 M) | Comparison with the Binding of Phenylalanine (10^−6 M) | SMILES | Status of Binding
1 (0 < X < 10 Rank 1) | 2 (10 < X < 20 Rank 2) | 1 (0 < X < 10 Rank 1) | CCOC(=O)c1c[nH]c(Sc2cccc(-c3cccc(CC(N)C(=O)O)c3)c2)nc1=O (stereo not drawn) [Compound 72] | 
1 (0 < X < 10 Rank 1) | 1 (0 < X < 10 Rank 1) | 1 (0 < X < 10 Rank 1) | NC(Cc1cccc(CSc2nc3ccccc3c(=O)[nH]2)c1)C(=O)O (stereo not drawn) [Compound 110] | 
0 (X < 0 Rank 0) | 1 (0 < X < 10 Rank 1) | 3 (X > 20 Rank 3) | NC(Cc1cccc(CSc2nnc(-c3ccncc3)o2)c1)C(=O)O (stereo not drawn) [Compound 10] | 
0 (X < 0 Rank 0) | 0 (X < 0 Rank 0) | 1 (0 < X < 10 Rank 1) | COc1ccc2[nH]c(Sc3cccc(-c4cccc(CC(N)C(=O)O)c4)c3)nc2c1 (stereo not drawn) [Compound 76] | 
0 (X < 0 Rank 0) | 1 (0 < X < 10 Rank 1) | 1 (0 < X < 10 Rank 1) | Cc1nnc(SCc2ccc(-c3ccc(CC(N)C(=O)O)cc3)cc2)s1 (stereo not drawn) [Compound 126] | 
0 (X < 0 Rank 0) | 0 (X < 0 Rank 0) | 2 (10 < X < 20 Rank 2) | N[C@@H](Cc1ccccc1)C(=O)NC(Cc1cccc(CSc2ncc[nH]2)c1)C(=O)O (stereo partly drawn) [Compound 7] | 
0 (X < 0 Rank 0) | 0 (X < 0 Rank 0) | 1 (0 < X < 10 Rank 1) | Cn1cnnc1SCc1cccc(CC(N)C(=O)O)c1 (stereo not drawn) [Compound 141] | 
2 (10 < X < 20 Rank 2) | 3 (X > 20 Rank 3) | 3 (X > 20 Rank 3) | Cc1nnc(Sc2cccc(-c3cccc(CC(N)C(=O)O)c3)c2)s1 (stereo not drawn) [Compound 111] | 
2 (10 < X < 20 Rank 2) | 3 (X > 20 Rank 3) | 3 (X > 20 Rank 3) | NC(Cc1cccc(CSc2nc(-c3ccccc3)c(-c3ccccc3)o2)c1)C(=O)O (stereo not drawn) [Compound 104] | 
0 (X < 0 Rank 0) | 0 (X < 0 Rank 0) | 1 (0 < X < 10 Rank 1) | NC(Cc1cccc(CN2CCN(c3ccc(F)cc3)CC2)c1)C(=O)O (stereo not drawn) [Compound 75] | 
0 (X < 0 Rank 0) | 2 (10 < X < 20 Rank 2) | 2 (10 < X < 20 Rank 2) | N[C@@H](Cc1ccccc1)C(=O)NC(Cc1cccc(CSc2nnnn2-c2ccc(O)cc2)c1)C(=O)O (stereo partly drawn) [Compound 50] | 
0 (X < 0 Rank 0) | 1 (0 < X < 10 Rank 1) | 0 (X < 0 Rank 0) | O=C(O)C(Cc1cccc(CSc2ncnc3[nH]ncc23)n1)NS(=O)(=O)c1ccc(F)cc1 (stereo not drawn) [Compound 64] | 
0 (X < 0 Rank 0) | 0 (X < 0 Rank 0) | 2 (10 < X < 20 Rank 2) | NC(Cc1cccc(-c2cccc(N3CCN(c4ccccn4)CC3)c2)c1)C(=O)O (stereo not drawn) [Compound 113] | 
2 (10 < X < 20 Rank 2) | 3 (X > 20 Rank 3) | 2 (10 < X < 20 Rank 2) | COc1ccc2[nH]c(SCc3cccc(CC(N)C(=O)O)c3)nc2c1 (stereo not drawn) [Compound 135] | 
2 (10 < X < 20 Rank 2) | 3 (X > 20 Rank 3) | 3 (X > 20 Rank 3) | CC(=O)c1ccc(N2CCN(Cc3cccc(CC(N)C(=O)O)c3)CC2)cc1 (stereo not drawn) [Compound 112] | 
2 (10 < X < 20 Rank 2) | 3 (X > 20 Rank 3) | 0 (X < 0 Rank 0) | Cc1nnc(SCc2cccc(CC(N)C(=O)O)c2)s1 (stereo not drawn) [Compound 81] | 
